# From the OligoGym collection
# HELM strings list units from the 5' end as sugar, base in round brackets, then linkage (d deoxyribose, r ribose, m 2'-O-methyl, p phosphodiester). Strings are as the collection lists them; they lack the last nucleoside at the 3' end of the tested compound. [moe] = 2'-O-(2-methoxyethyl) (MOE); [sp] = phosphorothioate linkage; [m5C] = 5-methylcytosine
# Biological target: APP
# Assay: mouse, dose not given
# Conditions: ASO
row,Substance,3 h FOB score [score 0-7]
1,RNA1{[moe](T)[sp].[moe](T)p.[moe](A)p.[moe]([m5C])p.[moe](A)[sp].d(T)[sp].d([m5C])[sp].d(A)[sp].d(T)[sp].d(T)[sp].d(T)[sp].d(T)[sp].d([m5C])[sp].d(T)[sp].d(T)[sp].[moe](G)p.[moe]([m5C])p.[moe](A)[sp].[moe](G)}$$$$ (last 3' nucleoside missing),0.33
2,RNA1{[moe](T)[sp].[moe](T)p.[moe](A)p.[moe]([m5C])p.[moe]([m5C])[sp].d(T)[sp].d(T)[sp].d(T)[sp].d(A)[sp].d(A)[sp].d([m5C])[sp].d(A)[sp].d(T)[sp].d(T)[sp].d([m5C])[sp].[moe]([m5C])p.[moe](T)p.[moe]([m5C])[sp].[moe](A)}$$$$ (last 3' nucleoside missing),0
3,RNA1{[moe](T)[sp].[moe](T)p.[moe](G)p.[moe](A)p.[moe](A)[sp].d([m5C])[sp].d([m5C])[sp].d([m5C])[sp].d(A)[sp].d([m5C])[sp].d(A)[sp].d(T)[sp].d([m5C])[sp].d(T)[sp].d(T)[sp].[moe]([m5C])p.[moe](T)p.[moe](G)[sp].[moe]([m5C])}$$$$ (last 3' nucleoside missing),0
4,RNA1{[moe](T)[sp].[moe](T)p.[moe](G)p.[moe](A)p.[moe](T)[sp].d(A)[sp].d(T)[sp].d(T)[sp].d(T)[sp].d(G)[sp].d(T)[sp].d([m5C])[sp].d(A)[sp].d(A)[sp].d([m5C])[sp].[moe]([m5C])p.[moe]([m5C])p.[moe](A)[sp].[moe](G)}$$$$ (last 3' nucleoside missing),2.5
5,RNA1{[moe](T)[sp].[moe](T)p.[moe](G)p.[moe](A)p.[moe](T)[sp].d(G)[sp].d([m5C])[sp].d(A)[sp].d([m5C])[sp].d(A)[sp].d(T)[sp].d(A)[sp].d(T)[sp].d([m5C])[sp].d([m5C])[sp].[moe](A)p.[moe](G)p.[moe](G)[sp].[moe]([m5C])}$$$$ (last 3' nucleoside missing),2
6,RNA1{[moe](T)[sp].[moe](T)p.[moe](G)p.[moe](A)p.[moe](T)p.[moe](A)p.d(T)[sp].d(T)[sp].d(T)[sp].d(G)[sp].d(T)[sp].d([m5C])[sp].d(A)[sp].d(A)[sp].d([m5C])[sp].d([m5C])[sp].[moe]([m5C])p.[moe](A)[sp].[moe](G)}$$$$ (last 3' nucleoside missing),4.75
7,RNA1{[moe](T)[sp].[moe](T)p.[moe](G)p.[moe](G)p.[moe](A)[sp].d(T)[sp].d(T)[sp].d([m5C])[sp].d(A)[sp].d(T)[sp].d([m5C])[sp].d(T)[sp].d([m5C])[sp].d([m5C])[sp].d(A)[sp].[moe](T)p.[moe](A)p.[moe]([m5C])[sp].[moe](T)}$$$$ (last 3' nucleoside missing),0
8,RNA1{[moe](T)[sp].[moe](T)p.[moe](G)p.[moe](T)p.[moe](A)[sp].d(G)[sp].d(G)[sp].d(A)[sp].d(A)[sp].d([m5C])[sp].d(T)[sp].d([m5C])[sp].d(G)[sp].d(A)[sp].d(A)[sp].[moe]([m5C])p.[moe]([m5C])p.[moe](A)[sp].[moe]([m5C])}$$$$ (last 3' nucleoside missing),2
9,RNA1{[moe](T)[sp].[moe](T)p.[moe](T)p.[moe](A)p.[moe]([m5C])[sp].d([m5C])[sp].d(T)[sp].d(T)[sp].d(T)[sp].d(A)[sp].d(A)[sp].d([m5C])[sp].d(A)[sp].d(T)[sp].d(T)[sp].[moe]([m5C])p.[moe]([m5C])p.[moe](T)[sp].[moe]([m5C])}$$$$ (last 3' nucleoside missing),0
10,RNA1{[moe](T)[sp].[moe](T)p.[moe](T)p.[moe](G)p.[moe]([m5C])[sp].d(A)[sp].d(T)[sp].d(A)[sp].d(T)[sp].d(T)[sp].d([m5C])[sp].d(A)[sp].d(T)[sp].d(A)[sp].d([m5C])[sp].[moe](T)p.[moe](T)p.[moe](G)[sp].[moe](G)}$$$$ (last 3' nucleoside missing),0
11,RNA1{[moe](T)[sp].[moe](T)p.[moe](T)p.[moe](G)p.[moe]([m5C])[sp].d(T)[sp].d(A)[sp].d([m5C])[sp].d(T)[sp].d(T)[sp].d(G)[sp].d(A)[sp].d(T)[sp].d(A)[sp].d(A)[sp].[moe](T)p.[moe]([m5C])p.[moe]([m5C])[sp].[moe](T)}$$$$ (last 3' nucleoside missing),1
12,RNA1{[moe](T)[sp].[moe](T)p.[moe]([m5C])p.[moe](A)p.[moe]([m5C])[sp].d(A)[sp].d(G)[sp].d(T)[sp].d(T)[sp].d(T)[sp].d(A)[sp].d([m5C])[sp].d([m5C])[sp].d([m5C])[sp].d([m5C])[sp].[moe](A)p.[moe](A)p.[moe](G)[sp].[moe]([m5C])}$$$$ (last 3' nucleoside missing),0
13,RNA1{[moe](T)[sp].[moe](T)p.[moe]([m5C])p.[moe]([m5C])p.[moe](A)[sp].d(A)[sp].d(A)[sp].d(G)[sp].d(A)[sp].d(T)[sp].d(T)[sp].d([m5C])[sp].d([m5C])[sp].d(A)[sp].d([m5C])[sp].[moe](T)p.[moe](T)p.[moe](T)[sp].[moe]([m5C])}$$$$ (last 3' nucleoside missing),0
14,RNA1{[moe](T)[sp].[moe]([m5C])p.[moe](A)p.[moe](G)p.[moe]([m5C])[sp].d([m5C])[sp].d([m5C])[sp].d([m5C])[sp].d(A)[sp].d(A)[sp].d(A)[sp].d(A)[sp].d(G)[sp].d(A)[sp].d(A)[sp].[moe](T)p.[moe](G)p.[moe]([m5C])[sp].[moe]([m5C])}$$$$ (last 3' nucleoside missing),0
15,RNA1{[moe](T)[sp].[moe]([m5C])p.[moe](A)p.[moe](T)p.[moe](A)[sp].d(T)[sp].d(T)[sp].d(G)[sp].d(T)[sp].d([m5C])[sp].d(T)[sp].d(T)[sp].d([m5C])[sp].d(A)[sp].d(A)[sp].[moe](T)p.[moe](G)p.[moe](T)[sp].[moe](G)}$$$$ (last 3' nucleoside missing),2
16,RNA1{[moe](T)[sp].[moe]([m5C])p.[moe](A)p.[moe](T)p.[moe](T)[sp].d([m5C])[sp].d(T)[sp].d([m5C])[sp].d(A)[sp].d(T)[sp].d([m5C])[sp].d([m5C])[sp].d([m5C])[sp].d([m5C])[sp].d(A)[sp].[moe](G)p.[moe](G)p.[moe](T)[sp].[moe](G)}$$$$ (last 3' nucleoside missing),0
17,RNA1{[moe](T)[sp].[moe]([m5C])p.[moe](A)p.[moe](T)p.[moe]([m5C])[sp].d(A)[sp].d(A)[sp].d([m5C])[sp].d(T)[sp].d(T)[sp].d(T)[sp].d(T)[sp].d(T)[sp].d(A)[sp].d(G)[sp].[moe](T)p.[moe]([m5C])p.[moe]([m5C])[sp].[moe](T)}$$$$ (last 3' nucleoside missing),0.67
18,RNA1{[moe](T)[sp].[moe]([m5C])p.[moe](A)p.[moe](T)p.[moe]([m5C])[sp].d(A)[sp].d([m5C])[sp].d([m5C])[sp].d(A)[sp].d(T)[sp].d(A)[sp].d([m5C])[sp].d(A)[sp].d(T)[sp].d(A)[sp].[moe](G)p.[moe]([m5C])p.[moe](A)[sp].[moe](G)}$$$$ (last 3' nucleoside missing),0.67
19,RNA1{[moe](T)[sp].[moe]([m5C])p.[moe](A)p.[moe]([m5C])p.[moe](A)[sp].d(G)[sp].d(T)[sp].d(T)[sp].d(T)[sp].d(A)[sp].d([m5C])[sp].d([m5C])[sp].d([m5C])[sp].d([m5C])[sp].d(A)[sp].[moe](A)p.[moe](G)p.[moe]([m5C])[sp].[moe](T)}$$$$ (last 3' nucleoside missing),0
20,RNA1{[moe](T)[sp].[moe]([m5C])p.[moe](G)p.[moe](G)p.[moe](A)[sp].d([m5C])[sp].d(T)[sp].d(T)[sp].d(A)[sp].d([m5C])[sp].d(T)[sp].d(G)[sp].d(T)[sp].d(A)[sp].d(A)[sp].[moe](T)p.[moe](G)p.[moe](G)[sp].[moe](G)}$$$$ (last 3' nucleoside missing),1.25
21,RNA1{[moe](T)[sp].[moe]([m5C])p.[moe](T)p.[moe](G)p.[moe](A)[sp].d(T)[sp].d(A)[sp].d(T)[sp].d(T)[sp].d([m5C])[sp].d(A)[sp].d([m5C])[sp].d(T)[sp].d(T)[sp].d(A)[sp].[moe](T)p.[moe]([m5C])p.[moe](T)[sp].[moe](G)}$$$$ (last 3' nucleoside missing),0
22,RNA1{[moe](T)[sp].[moe]([m5C])p.[moe](T)p.[moe](G)p.[moe](T)[sp].d(A)[sp].d(T)[sp].d(T)[sp].d(A)[sp].d(T)[sp].d(A)[sp].d([m5C])[sp].d(T)[sp].d([m5C])[sp].d(T)[sp].[moe](G)p.[moe](G)p.[moe](G)[sp].[moe]([m5C])}$$$$ (last 3' nucleoside missing),2.5
23,RNA1{[moe](T)[sp].[moe]([m5C])p.[moe](T)p.[moe](T)p.[moe](G)[sp].d(A)[sp].d(T)[sp].d(A)[sp].d(T)[sp].d(T)[sp].d(T)[sp].d(G)[sp].d(T)[sp].d([m5C])[sp].d(A)[sp].[moe](A)p.[moe]([m5C])p.[moe]([m5C])[sp].[moe]([m5C])}$$$$ (last 3' nucleoside missing),5
24,RNA1{[moe](T)[sp].[moe]([m5C])p.[moe](T)p.[moe](T)p.[moe]([m5C])[sp].d(A)[sp].d(A)[sp].d([m5C])[sp].d(T)[sp].d(T)[sp].d(A)[sp].d(G)[sp].d(T)[sp].d([m5C])[sp].d(A)[sp].[moe](T)p.[moe]([m5C])p.[moe]([m5C])[sp].[moe](T)}$$$$ (last 3' nucleoside missing),0
25,RNA1{[moe](T)[sp].[moe]([m5C])p.[moe](T)p.[moe](T)p.[moe]([m5C])[sp].d(A)[sp].d([m5C])[sp].d(T)[sp].d([m5C])[sp].d([m5C])[sp].d([m5C])[sp].d(A)[sp].d(T)[sp].d([m5C])[sp].d(T)[sp].[moe](G)p.[moe]([m5C])p.[moe](A)[sp].[moe](T)}$$$$ (last 3' nucleoside missing),1
